Literature values, collected in US8940506B2, “High-sensitive fluorescent energy transfer assay using fluoresent amino acids and fluorescent proteins” (The Regents of the University of California, priority 2008, dated 2015).

System: cancer cells
Settings: by disrupting the interaction of ubiquitin E3 ligase MDM2 and its substrate p53

COc1ccc(C2=N[C@@H](c3ccc(Cl)cc3)[C@@H](c3ccc(Cl)cc3)N2C(=O)N2CCNC(=O)C2)c(OC(C)C)c1 [Nutlin-3]
apoptosis and growth inhibition of cancer cells: induce apoptosis and growth inhibition of cancer cells
